Measurements: paper PMC6456241 (Preventive Nutrition and Food Science, 2018)

What was measured:
[1] = biological target: mushroom tyrosinase (EC 1.14.18.1) (Agaricus bisporus, UniProt C7FF04); assay: Assay of tyrosinase; format: biochemical
[2] = biological target: α-Glucosidase (EC 3.2.1.20); assay: Assay of α-glucosidase; format: biochemical; settings: read-out: Inhibition (IC50) α-Glucosidase; isolated compounds; pNPG substrate, pH 6.8, 37°C; mean±SD of triplicate

Chain of mushroom tyrosinase (EC 1.14.18.1) (C7FF04 1-392 limits assumed): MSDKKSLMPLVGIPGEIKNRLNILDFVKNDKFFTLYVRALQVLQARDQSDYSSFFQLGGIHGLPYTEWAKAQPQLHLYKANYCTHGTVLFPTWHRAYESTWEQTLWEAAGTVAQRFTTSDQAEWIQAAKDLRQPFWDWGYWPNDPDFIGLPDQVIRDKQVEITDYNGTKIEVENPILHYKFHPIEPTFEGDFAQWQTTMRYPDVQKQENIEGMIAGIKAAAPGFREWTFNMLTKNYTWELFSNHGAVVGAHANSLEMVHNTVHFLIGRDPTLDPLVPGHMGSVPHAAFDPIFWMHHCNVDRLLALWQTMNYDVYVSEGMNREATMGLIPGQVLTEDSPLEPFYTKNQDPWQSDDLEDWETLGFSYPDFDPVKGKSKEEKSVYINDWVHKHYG

Oc1cc(O)cc(-c2cc3ccc(O)cc3o2)c1 [MCM, moracin M]
IC50 [1]: 17.2 ± 0.37 µM | IC50 [2]: 168 ± 2.44 µM

CC(C)=CCc1c(O)ccc(C(=O)[C@H]2[C@@H](c3c(O)cc(-c4cc5ccc(O)cc5o4)cc3O)C=C(C)C[C@@H]2c2ccc(O)cc2O)c1O [CMC, chalcomoracin]
IC50 [1]: 5.61 ± 0.2 µM | IC50 [2]: 6 ± 0.46 µM

CC(C)=CCc1cc2cc(-c3cc(O)cc(O)c3)oc2cc1O [MCN, moracin N]
IC50 [1]: 10.16 ± 0.03 µM | IC50 [2]: 59.4 ± 2 µM

CC(C)=CCc1c(O)cc(-c2cc3ccc(O)cc3o2)cc1O [MCC, moracin C]
IC50 [1]: 37.9 ± 0.42 µM | IC50 [2]: 88.8 ± 1.32 µM

Oc1cc(O)cc(/C=C/c2ccc(O)cc2O)c1 [ORT, oxyresveratrol]
IC50 [1]: 0.57 ± 0.04 µM | IC50 [2]: 273 ± 13.2 µM
